{
  "source": "patent US4628090A",
  "about": "“Fluorine-containing antifolates incapable of polyglutanayte formation related compounds” (Rensselaer Polytechnic Institute, priority 1985, dated 1986)",
  "key": {"[1]": {"system": "FPGS (folylpolyglutamate synthetase)", "conditions": "Rosowsky et al; cited from earlier work"}, "DHFR": {"system": "DHFR", "conditions": "Rosowsky et al; cited from earlier work"}, "[2]": {"system": "FPGS (folylpolyglutamate synthetase)", "conditions": "alternate substrate; McGuire and Coward, J. Biol. Chem. 260, 6747 (1985); cited from earlier work"}, "[3]": {"system": "FPGS (folylpolyglutamate synthetase)", "experiment": "FPGS inhibition / chain termination by 4-fluoroglutamic acid", "type": "biochemical", "description": "The present invention for the first time presents a fluorinated compound, e.g. D,L-threo-4-fluoroglutamic acid which inhibits FPGS. It is proposed that by replacing the glutamate moiety of MTX with 4-fluoroglutamate, as in the present invention, the new MTX analog becomes capable of inhibiting DHFR and incapable of acting as a substrate for FPGS."}, "[4]": {"system": "dihydrofolate reductase (DHFR)", "experiment": "DHFR inhibition", "type": "biochemical", "conditions": "in vitro, relative to MTX", "description": "Hopefully, the potential for this new compound as a treatment for leukemia will be exploited further."}, "hepatic cells": {"system": "hepatic cells", "type": "cell-based"}, "[5]": {"system": "biosynthesis of thymidyate", "experiment": "Thymidylate biosynthesis (DNA synthesis) in pulse administration experiments", "type": "cell-based"}, "cultured hepatic cells": {"system": "cultured hepatic cells", "experiment": "Toxicity in long term pulse administration experiments, cultured hepatic cells", "type": "cell-based", "description": "The major difference is that the cells given MTX contain large amounts (60%-90%) of MTX polyglutamate derivatives which efflux only very slowly, and thus are trapped in the cell. In contrast, cells given MFTX contain less than 5% of the analgous FMTX polyglutamates."}, "rat liver FPGS": {"system": "rat liver FPGS", "experiment": "FPGS substrate activity, in vitro, rat liver FPGS", "type": "biochemical"}, "[6]": {"system": "folylpolyglutamate synthetase", "experiment": "Polyglutamylation by FPGS: incubation with FPGS, ATP and glutamic acid (Tables 2 and 3)", "type": "biochemical", "conditions": "Table 2 footnotes, ATP, glutamic acid"}, "leukemia": {"system": "leukemia", "conditions": "Farber et al, 1948; cited from earlier work"}},
  "note": "“Also recorded” adds a separate entry of the source. Read-outs that look alike come from different tables or passages of the source.",
  "data": [
    {"smiles": "CN(Cc1cnc2nc(N)nc(N)c2n1)c1ccc(C(=O)NC(CCS(=O)(=O)O)C(=O)O)cc1", "note": "(racemic)", "values": [
      {"measurement": "inhibition of FPGS", "setting": "[1]", "result": "appears to weakly inhibit FPGS"},
      {"measurement": "affinity for DHFR", "setting": "DHFR", "result": "tightly bind DHFR"}
    ]},
    {"smiles": "NC(CC(F)C(=O)O)C(=O)O", "note": "[D,L-threo-4-fluoroglutamic acid]", "values": [
      {"measurement": "chain termination of the FPGS reaction", "setting": "[2]", "result": "chain termination of the FPGS reaction"},
      {"measurement": "inhibition of FPGS", "setting": "[3]", "result": "inhibits FPGS"}
    ]},
    {"smiles": "CN(Cc1cnc2nc(N)nc(N)c2n1)c1ccc(C(=O)NC(CC(F)C(=O)O)C(=O)O)cc1", "note": "(stereo not drawn) [FMTX, 4-amino-10-methyl-pteroyl-4-fluoroglutamic acid]", "values": [
      {"measurement": "inhibitory activity against DHFR", "setting": "[4]", "result": "retain the potent inhibitory activity of MTX against DHFR; also recorded: comparable to MTX"},
      {"measurement": "efflux (transport out) from hepatic cells, rate", "setting": "hepatic cells", "result": "essentially identical to unmetabolized MTX"},
      {"measurement": "polyglutamate derivatives contained in cells", "setting": "hepatic cells", "result": "less than 5%"},
      {"measurement": "uptake by hepatic cells (rate and extent)", "setting": "hepatic cells", "result": "nearly identical in terms of rate and extent as unmetabolized MTX"},
      {"measurement": "biosynthesis of thymidyate, and therefore DNA synthesis", "setting": "[5]", "result": "only very weakly affected"},
      {"measurement": "toxicity levels", "setting": "cultured hepatic cells; long term pulse administration, cultured hepatic cells, relative to MTX", "result": "several thousand times lower than MTX"},
      {"measurement": "toxicity to cells", "setting": "cultured hepatic cells; preliminary biochemistry, relative to MTX", "result": "without being nearly as toxic to cells"},
      {"measurement": "cytotoxicity", "setting": "cultured hepatic cells; pulse conditions", "result": "marked decrease in cytotoxicity"},
      {"measurement": "substrate for FPGS", "setting": "rat liver FPGS", "result": "not a substrate"},
      {"measurement": "polyglutamylation", "setting": "[6]", "result": "resists"}
    ]},
    {"smiles": "Nc1nc2ncc(CNc3ccc(C(=O)N[C@@H](CCC(=O)O)C(=O)O)cc3)nc2c(=O)[nH]1", "note": "[Folic Acid]", "values": [
      {"measurement": "polyglutamylation", "setting": "[6]", "result": "undergoes polyglutamylation"}
    ]},
    {"smiles": "CN(Cc1cnc2nc(N)nc(N)c2n1)c1ccc(C(=O)N[C@@H](CCC(=O)O)C(=O)O)cc1", "note": "[Methotrexate]", "values": [
      {"measurement": "polyglutamate derivatives contained in cells", "setting": "hepatic cells", "result": "60-90%"},
      {"measurement": "remission in leukemia", "setting": "leukemia", "result": "temporary remission in leukemia"},
      {"measurement": "polyglutamylation", "setting": "[6]", "result": "undergoes"}
    ]}
  ]
}
